In paper PMC12543283, “TastepepAI: An artificial intelligence platform for taste peptide de novo design” (PLOS Computational Biology, 2025):
Values joined by “and” are separate entries in the source; they are usually repeats but may differ in a detail not shown here. Equal entries are not always repeated. Ends that are not written are not given here.

Legend:
[1] = Electronic tongue analysis (Taste-Sensing System SA 402B); parameters: unit not given here; conditions: reference solution 30 mM KCl + 0.3 mM tartaric acid as baseline, first measurement excluded; for Umami: sensor AAE; for Umami / Bitter / Sweet: detection threshold 0, room temperature; for Umami / Bitter / Sour / Salty: four replicates; for Sour: detection threshold -13, room temperature; for Salty: detection threshold -6, room temperature; for Sweet: measured five times
How it was run: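 Samples were tested at 0.1 and 1.0 mg/mL on an SA 402B e-tongue fitted with sourness, saltiness, bitterness, sweetness and umami sensors, with 30 mM KCl/0.3 mM tartaric acid as reference and baseline. Thresholds were −13 for sour, −6 for salty and 0 for the rest. Runs at room temperature: four replicates, five for sweetness, first reading discarded.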

[2] = tested on: human umbilical vein endothelial cells (HUVEC)
Experimental: The cytotoxicity of 73 synthetic peptides was evaluated using four human cell lines: human pancreatic ductal epithelial cells (HPNE), human embryonic kidney cells (HEK293T), human umbilical vein endothelial cells (HUVEC), and human bronchial epithelial cells (BEAS-2B). When cell density reached 70% confluence, the complete culture medium was replaced with serum-free maintenance medium, and peptides were added at a final concentration of 100 μM for 36 h. Control groups received only serum-free maintenance medium without peptides. Cell proliferation was assessed using the CCK-8 assay kit (Solarbio, CA1210) according to the manufacturer’s instructions.

[3] = tested on: human pancreatic ductal epithelial cells (HPNE)
[4] = tested on: human embryonic kidney cells (HEK293T)
[5] = tested on: human bronchial epithelial cells (BEAS-2B)

Row | Substance | Umami ([1]; peptide 0.1 mg/mL) | Umami ([1]; peptide 1 mg/mL) | Bitter ([1]; sensor C00, peptide 0.1 mg/mL) | Bitter ([1]; sensor C00, peptide 1 mg/mL) | Sour ([1]; sensor CA0, peptide 0.1 mg/mL) | Sour ([1]; sensor CA0, peptide 1 mg/mL) | Salty ([1]; sensor CT0, peptide 0.1 mg/mL) | Salty ([1]; sensor CT0, peptide 1 mg/mL) | Sweet ([1]; sensor GL1, peptide 0.1 mg/mL) | Sweet ([1]; sensor GL1, peptide 1 mg/mL) | Average cell viability, HUVEC [2] | Cell viability, HUVEC, Data1 [2] | Cell viability, HUVEC, Data2 [2] | Cell viability, HUVEC, Data3 [2] | Average cell viability, HPNE [3] | Cell viability, HPNE, Data1 [3] | Cell viability, HPNE, Data2 [3] | Cell viability, HPNE, Data3 [3] | Average cell viability, HEK293T [4] | Cell viability, HEK293T, Data1 [4] | other results
1 | TQEVVN [TaPep25] | 1.53 | -3.13 | 7.01 | 3.50 | -6.12 | 7.84 | -23.02 | 5.51 | 8.12 | -3.53 | 92.52 | 90.21 | 89.33 | 98.03 | 92.98 | 92.95 | 81.96 | 104.03 | 100.16 | 103.15 | Cell viability, HEK293T, Data2 [4]: 98.42; Cell viability, HEK293T, Data3 [4]: 98.90; Average cell viability, BEAS-2B [5]: 110.07; Cell viability, BEAS-2B, Data1 [5]: 118.34; Cell viability, BEAS-2B, Data2 [5]: 103.39; Cell viability, BEAS-2B, Data3 [5]: 108.47
2 | VAEDLL [TaPep8] | 2.66 | -4.08 | 7.50 | 1.63 | -5.63 | 8.25 | -22.00 | 7.96 | 9.31 | -4.65 | 103.81 | 109.13 | 93.96 | 108.33 | 106.12 | 109.62 | 99.23 | 109.52 | 101.07 | 102.68 | Cell viability, HEK293T, Data2 [4]: 95.30; Cell viability, HEK293T, Data3 [4]: 105.24; Average cell viability, BEAS-2B [5]: 103.39; Cell viability, BEAS-2B, Data1 [5]: 114.76; Cell viability, BEAS-2B, Data2 [5]: 90.53; Cell viability, BEAS-2B, Data3 [5]: 104.89
3 | VARLEA [TaPep9] | 2.67 | -2.73 | 7.95 | 2.75 | -6.31 | 8.17 | -18.92 | 12.49 | 8.92 | -4.48 | 96.43 | 97.15 | 102.50 | 89.65 | 104.39 | 117.30 | 93.74 | 102.13 | 105.62 | 103.06 | Cell viability, HEK293T, Data2 [4]: 112.15; Cell viability, HEK293T, Data3 [4]: 101.64; Average cell viability, BEAS-2B [5]: 112.30; Cell viability, BEAS-2B, Data1 [5]: 110.77; Cell viability, BEAS-2B, Data2 [5]: 115.45; Cell viability, BEAS-2B, Data3 [5]: 110.67
4 | VEKVE [TaPep67] | 1.99 | -4.10 | 7.39 | 4.01 | -4.19 | 10.40 | -19.59 | 9.82 | 6.41 | -3.54 | 100.75 | 112.48 | 97.95 | 91.80 | 96.14 | 105.92 | 99.23 | 83.26 | 100.22 | 99.37 | Cell viability, HEK293T, Data2 [4]: 105.99; Cell viability, HEK293T, Data3 [4]: 95.30; Average cell viability, BEAS-2B [5]: 110.54; Cell viability, BEAS-2B, Data1 [5]: 94.32; Cell viability, BEAS-2B, Data2 [5]: 118.94; Cell viability, BEAS-2B, Data3 [5]: 118.34
5 | VPDELN [TaPep23] | 1.53 | -4.39 | 7.18 | 3.47 | -3.15 | 11.00 | -22.67 | 6.69 | 5.26 | -4.58 | 97.76 | 98.19 | 95.72 | 99.39 | 99.63 | 105.82 | 109.52 | 83.56 | 90.54 | 91.61 | Cell viability, HEK293T, Data2 [4]: 84.89; Cell viability, HEK293T, Data3 [4]: 95.11; Average cell viability, BEAS-2B [5]: 102.53; Cell viability, BEAS-2B, Data1 [5]: 109.87; Cell viability, BEAS-2B, Data2 [5]: 92.32; Cell viability, BEAS-2B, Data3 [5]: 105.38
6 | YAGNAP [TaPep10] | 3.61 | -3.37 | 6.97 | bitterness suppression and -0.80 | -8.60 | 8.97 | -20.44 | 14.02 | 11.07 | -4.53 | 102.47 | 99.31 | 104.50 | 103.62 | 95.54 | 97.18 | 94.47 | 94.97 | 99.40 | 94.83 | Cell viability, HEK293T, Data2 [4]: 102.87; Cell viability, HEK293T, Data3 [4]: 100.50; Average cell viability, BEAS-2B [5]: 98.84; Cell viability, BEAS-2B, Data1 [5]: 101.69; Cell viability, BEAS-2B, Data2 [5]: 95.01; Cell viability, BEAS-2B, Data3 [5]: 99.80
